Results from ChEMBL document CHEMBL1806471, “Identification of 2-(4-pyridyl)thienopyridinones as GSK-3β inhibitors” (Bioorg Med Chem Lett, 2011).
pIC50: −log10 of the molar value.

Legend:
[1] = molecular target: T1, Glycogen synthase kinase-3 beta (Homo sapiens, UniProt P49841); experiment: Inhibition of human GSK3-beta expressed in baculovirus by fluorescence polarization assay
[2] = molecular target: T1, Glycogen synthase kinase-3 beta; experiment: Inhibition of human full length His-tagged GSK3-beta expressed in baculovirus by alphaLISA assay
[3] = molecular target: Cyclin-dependent kinase 2 (Homo sapiens, UniProt P24941); experiment: Inhibition of recombinant CDK2 expressed in baculovirus using […] by 33-P leadseeker assay
[4] = molecular target: T1, Glycogen synthase kinase-3 beta; experiment: Inhibition of human flag-tagged GSK3-beta expressed in HEK-MSRII cells assessed as CRMP-2 phosphorylation by alphaLISA assay; assay type: cell-based

T1 sequence (P49841 whole entry): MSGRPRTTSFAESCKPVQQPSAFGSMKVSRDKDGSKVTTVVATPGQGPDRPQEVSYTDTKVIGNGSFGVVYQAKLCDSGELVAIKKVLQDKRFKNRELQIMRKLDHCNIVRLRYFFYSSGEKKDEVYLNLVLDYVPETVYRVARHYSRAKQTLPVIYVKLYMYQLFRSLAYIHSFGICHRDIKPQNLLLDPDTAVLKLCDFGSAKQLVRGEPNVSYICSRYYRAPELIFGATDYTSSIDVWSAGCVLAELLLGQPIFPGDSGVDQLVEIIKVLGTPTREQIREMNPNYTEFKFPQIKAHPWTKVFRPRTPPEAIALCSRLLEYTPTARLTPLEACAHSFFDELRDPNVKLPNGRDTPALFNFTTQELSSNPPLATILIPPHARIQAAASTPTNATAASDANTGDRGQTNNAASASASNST

Structure (SMILES)	pIC50 [1]	pIC50 [2]	pIC50 [3]	pIC50 [4]
O=c1[nH]cc(-c2ccc(N3CCOCC3)cc2)c2sc(-c3ccncc3)cc12	6.30	7.20	4.80	5.90
Cn1cc(-c2ccc(N3CCOCC3)cc2)c2sc(-c3ccncc3)cc2c1=O		6.60	< 4.80	< 4.00
COc1ncc(-c2ccc(N3CCOCC3)cc2)c2sc(-c3ccncc3)cc12		5.00	< 4.80	< 4.00
N#Cc1ccc(F)c(-c2c[nH]c(=O)c3cc(-c4ccncc4)sc23)c1	8.30		6.70	7.10
N#CCc1cccc(-c2c[nH]c(=O)c3cc(-c4ccncc4)sc23)c1	8.00		5.40	6.20
O=c1[nH]cc(-c2cccc(Cl)n2)c2sc(-c3ccncc3)cc12	8.00		< 4.80	5.40
COCc1ccccc1-c1c[nH]c(=O)c2cc(-c3ccncc3)sc12	7.00		5.30	5.40
CCOc1ccc(-c2c[nH]c(=O)c3cc(-c4ccncc4)sc23)cn1	6.90		5.20	5.50
COc1cc(F)ccc1-c1c[nH]c(=O)c2cc(-c3ccncc3)sc12	6.80		5.30	5.30
CN(C)C(=O)c1ccccc1-c1c[nH]c(=O)c2cc(-c3ccncc3)sc12	6.50		< 4.80	5.20

Continued, values first:

pIC50 [1]	pIC50 [2]	pIC50 [3]	pIC50 [4]	Structure (SMILES)
5.60			< 4.00	Cc1cc(-c2cc3c(=O)[nH]cc(-c4cccc(NS(C)(=O)=O)c4)c3s2)ccn1
	7.70	5.50	< 4.00	CS(=O)(=O)Nc1cccc(-c2c[nH]c(=O)c3cc(-c4ccnc5[nH]ccc45)sc23)c1
	7.90	6.60	6.40	O=c1[nH]cc(-c2ccc(N3CCOCC3)cc2)c2sc(-c3cn[nH]c3)cc12
8.20		5.80	6.20	O=c1[nH]cc(-c2ccc3c(c2)OCCO3)c2sc(-c3ccncc3)cc12
7.90		6.80	6.50	N#Cc1cscc1-c1c[nH]c(=O)c2cc(-c3ccncc3)sc12
6.50		4.90	5.10	O=c1[nH]cc(-c2cccc3cccnc23)c2sc(-c3ccncc3)cc12
